In patent US20220186188A1, “Method for Obtaining Pancreatic Progenitor Cells and Pancreatic Islet Beta Cells By Means of Differentiation of Human Pluripotent Stem Cells” (Asia Regenerative Medicine, Ltd., priority 2019, published 2022):

Tests used:
Format in all cases: cell-based
[1] = tested on: pancreatic progenitor cells and pancreatic islet β cells differentiated from human embryonic stem cells; experiment: Immunofluorescence detection of PDX1 and PDX1/INS proteins (human embryonic stem cells)
Protocol: (§1) a pancreatic progenitor cell medium was prepared, the medium in step 1) was replaced with the pancreatic progenitor cell medium, and the cells were cultured in a carbon dioxide incubator at 37 degrees Celsius for 5 days, during which the medium was replaced every day, wherein the composition of the pancreatic progenitor cell medium was: with an MCDB131 medium as a basic medium, and the following components at the working concentrations were further included: 0.5% of bovine serum albumin (BSA), 1.5 g/L of sodium bicarbonate, 1×glutamine (GlutaMAX), 10 mM glucose, 0.25 M vitamin C, 1×insulin-transferrin-selenium-ethanolamine additive (ITS-X), 50 ng/ml of fibroblast growth factor 7 (KGF), 0.5 μM SANT1 (with smo as an inhibitor target), 100 nM retinoic acid (TTNPB), 500 nM phorbol 12,13-dibutyrate (PDBu), 2 μM ALK inhibitor (K02288), and 2 μM WNT signaling pathway inhibitor XAV-939 (not added in a control group), with the concentrations all being final concentrations.
(§2) b. pancreatic islet β cell medium 2 was prepared, the pancreatic islet β cell medium 1 in above-mentioned step a was replaced with the pancreatic islet β cell medium 2, and the cells were cultured in a carbon dioxide incubator at 37 degrees Celsius for 5 days, during which the medium was replaced every day, wherein the composition of the pancreatic islet β cell medium 1 was: with an MCDB131 medium as a basic medium, and the following components at the working concentrations were further included: 20 mM glucose, 2% of bovine serum albumin (BSA), 1.5 g/L of sodium bicarbonate, 1×glutamine (GlutaMAX), 0.05 mM vitamin C, 1×insulin-transferrin-selenium-ethanolamine additive (ITS-X), 2 μM ALK inhibitor (K02288), 1 μM triiodothyronine (T3), 10 μM YO-01027 (Notch signaling pathway inhibitor), and 10 μM zinc sulfate, with the concentrations all being final concentrations; and the composition of the pancreatic islet β cell medium 2 was: with an MCDB131 medium as a basic medium, and the following components at the working concentrations were further included: 20 mM glucose, 2% of bovine serum albumin (BSA), 1.5 g/L of sodium bicarbonate, 1×glutamine (GlutaMAX), 0.05 mM vitamin C, 1×insulin-transferrin-selenium-ethanolamine additive (ITS-X), 1 μM triiodothyronine (T3), 10 μM Repsox (ALK5 inhibitor), 10 μM vitamin E, 10 μg/ml of heparin sodium, 2 μM R428 (Axl inhibitor), 10 μM zinc sulfate, and 10 mM N-acetyl-L-cysteine (N-cys), with the concentrations all being final concentrations.
Cells in a culture plate were washed three times with a phosphate buffered saline (PBS), 3 minutes each time; the cells were fixed with 4% paraformaldehyde at room temperature for 20 minutes, and washed three times with PBS, 3 minutes each time; a blocking solution was prepared in advance (by adding Triton at a final concentration of 0.3% to 9 ml of DPBS, adding donkey serum at a final concentration of 10%, and uniformly mixing); the above-prepared blocking solution was used for blocking and perforation at room temperature for 2 hours; the blocking solution was soaked up, a working concentration of primary antibody prepared with the blocking solution was then added, and the product was left to stand at room temperature for 30 minutes and then placed in a refrigerator at 4° C. overnight; the next day, the product was washed three times with PBS, 3 minutes each time; a fluorescent secondary antibody of donkey serum was added and incubation was carried out at room temperature for 2 hours; in the same way, the product was washed three times with PBS, 3 minutes each time; the product was incubated with a working solution of the nuclear dye DAPI at room temperature for 10 minutes, and washed three times with PBS, 3 minutes each time; then a fluorescence microscope was used for observation and data were collected. […]

[2] = tested on: pancreatic progenitor cells differentiated from human embryonic stem cells; experiment: Flow cytometry detection of PDX1 in the pancreatic progenitor cell stage (human embryonic stem cells); conditions: 2 μM inhibitor in pancreatic progenitor cell medium, 5 days, compared with control group without WNT inhibitor
Protocol: as §1, with “concentrations. […]” for “concentrations.”

[3] = tested on: pancreatic progenitor cells and pancreatic islet β cells differentiated from human embryonic stem cells; experiment: Real-time fluorescence quantitative PCR of PDX1, NKX6-1 and INS mRNA (human embryonic stem cells); conditions: qPCR
Protocol: as §1, §2
Cells cultured in a 24-well plate were collected, and washed twice with 500 μl of DPBS at first, then covered with 200 μl of chymotrypsin-trypsin (Trypsin), and placed at 37° C. for 5 minutes of digestion. Whether the cells float in pieces was observed, and the digestion was terminated using 500 μl of DMEM/F12 medium, then the product was centrifuged at 1000 rpm for 3 minutes, the supernatant was removed, and cell pellets were collected and added to a new RNase-free centrifuge tube. […]

[4] = 2 μM inhibitor in pancreatic progenitor cell stage
[5] = 2 μM inhibitor in pancreatic progenitor cell stage, GAPDH reference

SMILES: O=C(Nc1cccc2cccnc12)c1ccc(N2C(=O)[C@@H]3[C@H](C2=O)[C@@H]2C=C[C@H]3C2)cc1 [IWR-1]
- number of insulin INS-positive and PDX1 co-stained pancreatic islet β cells in the mature pancreatic islet β cell stage ([1]; 2 μM inhibitor added in pancreatic progenitor cell stage, immunofluorescence): significantly increased
- PDX1-positive pancreatic progenitor cells (immunofluorescence) [1, 4]: significantly increased
- cell growth (total cell number by DAPI) [1, 4]: did not affect the cell growth
- PDX1-positive pancreatic progenitor cells (flow cytometry) [2]: significantly increased
- transcription level of the insulin gene INS in the mature pancreatic islet β cell stage ([3]; 2 μM inhibitor added in pancreatic progenitor cell stage): greatly increased
- relative expression of mRNA of NKX6-1 in pancreatic progenitor cells [3, 5]: significantly increased
- relative expression of mRNA of PDX1 in pancreatic progenitor cells [3, 5]: significantly increased
